Measured values as given in patent publication US20250230159A1, “FUSED HETEROCYCLIC COMPOUNDS AS MODULATORS OF RAS SIGNALLING” (Shenzhen Ionova Life Science Co., Ltd., priority 2022, published 2025).
Like-named read-outs stand apart in the source and are kept apart here.

Columns and labels:
[1] = biological target: KRAS-G12C/SOS1 interaction (Homo sapiens (Human), UniProt Q07889); assay: Protein-Protein Interaction (PPI) assay, SOS1-KRAS binding assay kit (HTRF)
Description: This Example illustrates that exemplary compounds of the present invention blockade the interaction of SOS1 to KRAS protein.
The ability of a compound of Formula (I) to block the interaction of SOS1 to KRAS was measured using a SOS1-KRAS binding assay kit (CAT #63ADK000CB16PEG, Cisbio). Utilizing HTRF (Homogeneous Time-resolved Fluorescence) technology, the assay enables simple and rapid characterization of compound and antibody blockers in a high throughput format. The interaction between Tag1-SOS1 and Tag2-KRAS-G12C is detected by using anti-Tag1-Terbium antibody (HTRF donor) and anti-Tag2-XL665 antibody (HTRF acceptor). When the donor and acceptor antibodies are brought into close proximity due to SOS1 and KRAS-G12C binding, excitation of the donor antibody triggers fluorescent resonance energy transfer (FRET) towards the acceptor antibody, which in turn emits specifically at 665 nm. This specific signal is directly proportional to the extent of KRAS-G12C/SOS1 interaction.
The assay was carried according to the manufacturer's instructions. Compounds at an initial concentration of 10 mM in DMSO were first serially diluted on a 384-well plate using assay buffer at a ratio of 1:3 for a total of 9 concentrations with each of a volume of 20 μL. Blank buffer was included as the negative control. The final compound solution was in the buffer solution with 1% DMSO. Then, in each well of a 384-well plate, a solution of 2 μL compound solution, 4 μL tagged SOS1 and KRAS (G12C) protein stocks, respectively, and 10 μM GTP was incubated for 15 min. 10 μL mixture of […] antibody and anti-Tag1-Terbium antibody was introduced to each individual well. After 2 hours incubation at room temperature, fluorescence readout was measured with a Pelkin Elmer multiple plate reader VICTOR Nivo.
Excitation was from over a range of 245-395 nm, and emission from the donor (emission 1) was detected at […] and emission from the acceptor (emission 2) was detected at (606.5-623.5) nm. The HTRF ratio was calculated using the formula: (emission 1 @665 nm/emission 2 @620 nm)×10000. Thus, compounds blocking KRAS-G12C/SOS1 interaction will cause a reduction in HTRF signal ratio. The IC50 values were then calculated with the Graph pad Prism software.

pERK in Hela cells = assay: Phospho-ERK (p-ERK) assay in Hela cells; format: cell-based; details: β-actin normalized
Description: This Example illustrates that exemplary compounds of the present invention prevent KRas-mediated GTP nucleotide exchange mediated by SOS1 to inhibit KRas activity, thereby inhibiting the generation of the downstream effector pERK.
Hela cells (23,000/w) were seeded in a black clear flat bottom 96-well cell culture plate (Corning, #3904) and incubated at 37° C. overnight. At day 2, cells were dosed with compounds of Formula (I) with a 10 μM starting concentration and serially diluted 3× for a total of 9 concentrations. The cells were incubated for 1 hour with the compounds solubilized in DMSO at 37° C. Cells were immediately fixed by adding 100 μL of 8% formaldehyde to all wells in a fume hood and the plates were incubated for 1 hr at room temperature. The formaldehyde was discarded from the plates and washed 5 times and each time for 5 min with 200 μL of Triton Washing Solution (0.1% Triton in PBS) each time to permeabilize the cells. Cells were then blocked with 150 μL of Odyssey blocking buffer (LI-COR Biosciences #927-50010) at room temperature on a shaker. The blocking buffer was discarded and 50 μL of primary antibodies pERK (cell signaling Technology #4370; Rabbit, 1:500) and β-actin (AF5001; Mouse, 1:2000) diluted in Odyssey blocking buffer was added. The plates were incubated overnight at 4° C. on a shaker.
On day 3, the primary antibody solution was removed. Each plate was washed 5× times with 200 μL of 1×PBST (PBS+0.1% Tween 20) and incubated with 50 μL of secondary antibodies: Anti-Rabbit (LI-COR Biosciences #926-32211) and Anti-Mouse (LI-COR Biosciences #68070) at 1:1000 dilution in Odyssey blocking buffer at room temperature on a shaker for 1 hour (protected from light). The secondary antibody solution as removed and each plate was washed with PBST 5× times. Any liquid remaining was discarded and the plate was imaged using the Licor Odyssey machine according to the manufacturer's instruction, using a set focus length at 3.5 mm and both 800 nm and 700 nm filters. The 3-actin normalized scan values for each well were divided by the average of vehicle wells to get the % of p-ERK inhibition. The IC50 values were then calculated with the Graph pad Prism software. In general, p-ERK IC50 data are in line with the PPI IC50 data.

[2] = Homo sapiens, Table 1, 1 hour with compound

Sequence of KRAS-G12C/SOS1 interaction (Q07889 whole entry, stated change not applied): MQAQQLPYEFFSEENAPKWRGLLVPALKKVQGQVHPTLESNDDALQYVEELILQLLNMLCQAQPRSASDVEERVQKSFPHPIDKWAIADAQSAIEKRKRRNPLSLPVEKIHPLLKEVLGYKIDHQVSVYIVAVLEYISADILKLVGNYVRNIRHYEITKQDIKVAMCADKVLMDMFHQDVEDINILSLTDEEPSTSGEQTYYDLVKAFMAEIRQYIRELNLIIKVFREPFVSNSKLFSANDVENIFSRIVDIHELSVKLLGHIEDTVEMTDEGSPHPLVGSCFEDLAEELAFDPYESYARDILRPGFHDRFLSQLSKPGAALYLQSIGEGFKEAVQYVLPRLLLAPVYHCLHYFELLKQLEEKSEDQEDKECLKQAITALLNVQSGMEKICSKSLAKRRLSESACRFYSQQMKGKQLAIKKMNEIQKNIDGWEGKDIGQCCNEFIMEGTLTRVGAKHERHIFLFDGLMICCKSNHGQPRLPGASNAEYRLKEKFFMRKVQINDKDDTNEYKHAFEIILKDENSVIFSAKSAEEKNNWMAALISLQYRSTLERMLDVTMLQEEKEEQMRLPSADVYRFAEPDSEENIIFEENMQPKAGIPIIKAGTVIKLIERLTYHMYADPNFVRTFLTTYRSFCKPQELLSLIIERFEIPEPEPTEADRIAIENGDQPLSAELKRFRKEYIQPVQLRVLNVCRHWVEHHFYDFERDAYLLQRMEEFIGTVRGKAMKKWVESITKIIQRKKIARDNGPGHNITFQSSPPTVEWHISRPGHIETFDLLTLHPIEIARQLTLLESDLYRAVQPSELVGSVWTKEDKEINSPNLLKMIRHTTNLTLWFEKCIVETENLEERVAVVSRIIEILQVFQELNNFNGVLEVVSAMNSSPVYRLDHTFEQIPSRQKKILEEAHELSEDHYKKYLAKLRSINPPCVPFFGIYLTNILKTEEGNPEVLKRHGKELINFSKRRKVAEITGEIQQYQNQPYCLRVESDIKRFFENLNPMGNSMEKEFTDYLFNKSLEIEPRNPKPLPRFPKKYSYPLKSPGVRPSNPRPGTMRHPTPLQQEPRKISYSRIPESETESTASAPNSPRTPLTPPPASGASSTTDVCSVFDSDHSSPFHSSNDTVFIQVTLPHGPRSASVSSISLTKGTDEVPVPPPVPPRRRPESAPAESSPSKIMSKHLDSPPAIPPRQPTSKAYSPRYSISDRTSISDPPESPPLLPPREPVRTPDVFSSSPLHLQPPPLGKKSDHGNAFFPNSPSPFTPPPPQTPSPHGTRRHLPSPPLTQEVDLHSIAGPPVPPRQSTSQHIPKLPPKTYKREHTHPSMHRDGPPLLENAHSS

SMILES | IC50 ([1]; read-out: PPI Assay IC50) [nM] | IC50 (pERK in Hela cells; [2]) [nM] | also measured
Cc1nc(N[C@H](C)c2cccc(C(F)F)c2F)c2cc(C(=O)N3CC4(COC4)C3)c3nnnn3c2n1 [Example 62] |  |  | IC50 ([1]; Table 1 (PPI IC50 < 100 nM), Tag1-SOS1 / Tag2-KRAS-G12C, HTRF, 10 μM GTP, read-out: PPI Assay IC50): < 100 nM; IC50 (pERK in Hela cells; Table 1, 1 hour with compound): > 100 nM
Cc1nc(N[C@H](C)c2cccc(C(F)F)c2F)c2cc(C(=O)N3C4CC3CN(C)C4)c3nnnn3c2n1 [Example 66] | < 100 | > 100 | 
CC(=O)N1CCC(c2cc3c(N[C@H](C)c4cccc(C(F)F)c4F)nc(C)nc3n3cnnc23)CC1 [Example 67, (R)-1-(4-(4-((1-(3-(difluoromethyl)-2-fluorophenyl)ethyl)amino)-2-methyl-[1,2,4]triazolo[4′,3′:1,6]pyrido[2,3-d]pyrimidin-6-yl)piperidin-1-yl)ethan-1-one] | < 100 | > 100 | 
COCC(=O)N1CCC(c2cc3c(N[C@H](C)c4cccc(C(F)F)c4F)nc(C)nc3n3cnnc23)CC1 [Example 68] | < 100 | > 100 | 
CCS(=O)(=O)N1CCC(c2cc3c(N[C@H](C)c4cccc(C(F)F)c4F)nc(C)nc3n3cnnc23)CC1 [Example 70] |  |  | IC50 [1]: > 100 nM; IC50 (pERK in Hela cells; Homo sapiens, Table 2, 1 hour with compound): > 100 nM
Cc1nc(N[C@H](C)c2cccc(C(F)F)c2F)c2cc(N3CCOCC3)c3nncn3c2n1 [Example 74, (R)—N-(1-(3-(difluoromethyl)-2-fluorophenyl)ethyl)-2-methyl-6-morpholino-[1,2,4]triazolo[4′,3′:1,6]pyrido[2,3-d]pyrimidin-4-amine] | < 100 | > 100 | 
Cc1nc(N[C@H](C)c2cccc(C(F)F)c2F)c2cc(N3CCS(=O)(=O)CC3)c3nncn3c2n1 [Example 76] | < 100 | > 100 | 
C[C@@H](Nc1ncnc2c1cc(N1CCOCC1)c1nncn12)c1cccc(C(F)F)c1F [Example 79] | < 100 | < 100 | 
Cc1nc(N[C@H](C)c2cc(N)cc(C(F)(F)F)c2)c2cc(N3CCOCC3)c3nncn3c2n1 [Example 85] | < 100 | < 100 | 
C[C@@H](Nc1ncnc2c1cc(N1CCOCC1=O)c1nncn12)c1cc(N)cc(C(F)(F)F)c1 [Example 86] | < 100 | < 100 | 
C[C@@H](Nc1ncnc2c1cc(O[C@H]1CCOC1)c1nncn12)c1cccc(C(F)F)c1F [Example 88] | < 100 | < 100 | 
CC(=O)N1CCN(c2cc3c(N[C@H](C)c4cccc(C(F)F)c4F)nc(C)nc3n3nnnc23)CC1 [Example 92] | < 100 | < 100 | 
Cc1nc(N[C@H](C)c2cc(N)cc(C(F)(F)F)c2)c2cc(N3CCOCC3)c3nnnn3c2n1 [Example 95] | < 100 | < 100 | 
C[C@@H](Nc1ncnc2c1cc(N1CCS(=O)(=O)CC1)c1nnnn12)c1cccc(C(F)F)c1F [Example 96] | < 100 | > 100 | 
C[C@@H](Nc1ncnc2c1cc(N1CCOCC1)c1nnnn12)c1cccc(C(F)F)c1F [Example 98] | < 100 | < 100 | 
CC(=O)N1CCN(c2cc3c(N[C@H](C)c4cccc(C(F)F)c4F)ncnc3n3nnnc23)CC1 [Example 99] | < 100 | < 100 | 
CC(=O)N1CC=C(c2cc3c(N[C@H](C)c4cccc(C(F)F)c4F)nc(C)nc3n3cnnc23)CC1 [Example 100, (R)-1-(4-(4-((1-(3-(difluoromethyl)-2-fluorophenyl)ethyl)amino)-2-methyl-[1,2,4]triazolo[4′,3′:1,6]pyrido[2,3-d]pyrimidin-6-yl)-3,6-dihydropyridin-1(2H)-yl)ethan-1-one] | < 100 | > 100 | 
CC(=O)N1CCC(O)(c2cc3c(N[C@H](C)c4cccc(C(F)F)c4F)nc(C)nc3n3nnnc23)CC1 [Example 112] | < 100 | > 100 | 
CC(=O)N1CCC(O)(c2cc3c(N[C@H](C)c4cccc(C(F)F)c4F)ncnc3n3nnnc23)CC1 [Example 113] | < 100 | > 100 | 
CC(=O)N1CCC(F)(c2cc3c(N[C@H](C)c4cccc(C(F)F)c4F)nc(C)nc3n3cnnc23)CC1 [Example 114, (R)-1-(4-(4-((1-(3-(difluoromethyl)-2-fluorophenyl)ethyl)amino)-2-methyl-[1,2,4]triazolo[4′,3′:1,6]pyrido[2,3-d]pyrimidin-6-yl)-4-fluoropiperidin-1-yl)ethan-1-one] | < 100 | < 100 | 
CC(=O)N1CCC(F)(c2cc3c(N[C@H](C)c4cccc(C(F)F)c4F)nc(C)nc3n3cnnc23)C1 (stereo partly drawn) [Example 115] | < 100 | > 100 | 
CC(=O)N1CCC(F)(c2cc3c(N[C@H](C)c4cccc(C(F)F)c4F)nc(C)nc3n3nnnc23)CC1 [Example 116] | < 100 | < 100 | 

Now from value to compound, other results behind:

IC50 ([1]; read-out: PPI Assay IC50) [nM] | SMILES | IC50 (pERK in Hela cells; [2]) [nM] | also measured
< 100 | Cc1nc(N[C@H](C)c2cccc(C(F)F)c2F)c2cc(C3CCN(C(=O)N(C)C)CC3)c3nncn3c2n1 [Example 69] | > 100 | 
< 100 | Cc1nc(N[C@H](C)c2cccc(C(F)F)c2F)c2cc(C3CCN(CCS(C)(=O)=O)CC3)c3nncn3c2n1 [Example 71] | > 100 | 
< 100 | Cc1nc(N[C@H](C)c2cccc(C(F)F)c2F)c2cc(N3CCOCC3)c3nnnn3c2n1 [Example 91, (R)—N-(1-(3-(difluoromethyl)-2-fluorophenyl)ethyl)-8-methyl-4-morpholinotetrazolo[1′,5′:1,6]pyrido[2,3-d]pyrimidin-6-amine] | < 100 | 
< 100 | Cc1nc(N[C@H](C)c2cccc(C(F)F)c2F)c2cc(N3CCS(=O)(=O)CC3)c3nnnn3c2n1 [Example 93] | > 100 | 
< 100 | C[C@@H](Nc1ncnc2c1cc(N1CC(C(=O)N(C)C)C1)c1nnnn12)c1cccc(C(F)F)c1F [Example 97] | > 100 | 
< 100 | CC(=O)N1CC=C(c2cc3c(N[C@H](C)c4cccc(C(F)F)c4F)ncnc3n3cnnc23)CC1 [Example 101] | < 100 | 
< 100 | CC(=O)N1CC=C(c2cc3c(N[C@H](C)c4cccc(C(F)F)c4F)nc(C)nc3n3nnnc23)CC1 [Example 105] | < 100 | 
< 100 | CC(=O)N1CC=C(c2cc3c(N[C@H](C)c4cccc(C(F)F)c4F)ncnc3n3nnnc23)CC1 [Example 106] | < 100 | 
< 100 | CC(=O)N1CCC(O)(c2cc3c(N[C@H](C)c4cccc(C(F)F)c4F)nc(C)nc3n3cnnc23)CC1 [Example 107, (R)-1-(4-(4-((1-(3-(difluoromethyl)-2-fluorophenyl)ethyl)amino)-2-methyl-[1,2,4]triazolo[4′,3′:1,6]pyrido[2,3-d]pyrimidin-6-yl)-4-hydroxypiperidin-1-yl)ethan-1-one] | < 100 | 
< 100 | CC(=O)N1CCC(O)(c2cc3c(N[C@H](C)c4cccc(C(F)F)c4F)ncnc3n3cnnc23)CC1 [Example 108] | < 100 | 
< 100 | CC(=O)N1CCC(O)(c2cc3c(N[C@H](C)c4cccc(C(F)F)c4F)nc(C)nc3n3cnnc23)C1 (stereo partly drawn) [Example 109] | > 100 | 
